Source: PubChem BioAssay AID2060894 (Molecular Pharmacology Branch, DTP, NCI, 2025)
Blank lines part the entries; values can stand above or below the compound they belong to.

System: K12877-001-R-J1-PDC complex spheroid viability
Experiment: Anticancer human tumor K12877-001-R-J1-PDC patient-derived lung adenocarcinoma cell line growth inhibition [RAS]
Conditions: for IC50: curve of first compound; for viability, T/C: stronger effect = lower value
Outline: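 Agents were tested in combination matrices in half-log decrements from a top concentration at or near clinical Cmax (10 microM if undetermined). Targets were multi-cell spheroids of tumour lines plus HUVEC and MSC stromal cells.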

[1] = second compound 0.000949 µM, first compound 0.00316 µM
[2] = second compound 0.000949 µM, first compound 0.01 µM
[3] = second compound 0.000949 µM, first compound 0.0316 µM
[4] = second compound 0.000949 µM, first compound 0.1 µM
[5] = second compound 0.000949 µM, first compound 0.316 µM
[6] = second compound 0.000949 µM, first compound 1 µM
[7] = second compound 0.003 µM, first compound 0.00316 µM
[8] = second compound 0.003 µM, first compound 0.01 µM
[9] = second compound 0.003 µM, first compound 0.0316 µM
[10] = second compound 0.003 µM, first compound 0.1 µM
[11] = second compound 0.003 µM, first compound 0.316 µM
[12] = second compound 0.003 µM, first compound 1 µM
[13] = second compound 0.00949 µM, first compound 0.00316 µM
[14] = second compound 0.00949 µM, first compound 0.01 µM
[15] = second compound 0.00949 µM, first compound 0.0316 µM
[16] = second compound 0.00949 µM, first compound 0.1 µM
[17] = second compound 0.00949 µM, first compound 0.316 µM
[18] = second compound 0.00949 µM, first compound 1 µM
[19] = second compound 0.03 µM, first compound 0.00316 µM
[20] = second compound 0.03 µM, first compound 0.01 µM
[21] = second compound 0.03 µM, first compound 0.0316 µM
[22] = second compound 0.03 µM, first compound 0.1 µM
[23] = second compound 0.03 µM, first compound 0.316 µM
[24] = second compound 0.03 µM, first compound 1 µM
[25] = second compound 0.0949 µM, first compound 0.00316 µM
[26] = second compound 0.0949 µM, first compound 0.01 µM
[27] = second compound 0.0949 µM, first compound 0.0316 µM
[28] = second compound 0.0949 µM, first compound 0.1 µM
[29] = second compound 0.0949 µM, first compound 0.316 µM
[30] = second compound 0.0949 µM, first compound 1 µM
[31] = second compound 0.3 µM, first compound 0.00316 µM
[32] = second compound 0.3 µM, first compound 0.01 µM
[33] = second compound 0.3 µM, first compound 0.0316 µM
[34] = second compound 0.3 µM, first compound 0.1 µM
[35] = second compound 0.3 µM, first compound 0.316 µM
[36] = second compound 0.3 µM, first compound 1 µM
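Note: spheroids exposed to agents for one week before readout.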
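Throughout, for viability, T/C: tumour cells co-cultured with HUVEC and mesenchymal stem cells in spheroids.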

IC50 (second compound 0.000949 µM): > 1000 nM
IC50 (second compound 0.003 µM): > 1000 nM
IC50 (second compound 0.00949 µM): > 1000 nM
IC50 (second compound 0.03 µM): > 1000 nM
IC50 (second compound 0.0949 µM): > 1000 nM
IC50 (second compound 0.3 µM): > 1000 nM
SMILES: C=CC(=O)N1CCN(c2nc(OCC3CCCN3C)nc3c(F)c(-c4nc(N)cc(C)c4C(F)(F)F)c(Cl)cc23)C(C)C1 (stereo not drawn) + CCn1c(-c2cc(N3CCN(C)CC3)cnc2C(C)OC)c2c3cc(ccc31)-c1csc(n1)CC(NC(=O)C1CC1C)C(=O)N1CCCC(N1)C(=O)OCC(C)(C)C2
viability, T/C [1]: 80.8%
viability, T/C [2]: 71.5%
viability, T/C [3]: 78.4%
viability, T/C [4]: 69.2%
viability, T/C [5]: 69.5%
viability, T/C [6]: 68%
viability, T/C [7]: 66.2%
viability, T/C [8]: 66.7%
viability, T/C [9]: 66.4%
viability, T/C [10]: 60.6%
viability, T/C [11]: 62.7%
viability, T/C [12]: 67%
viability, T/C [13]: 69.7%
viability, T/C [14]: 62%
viability, T/C [15]: 70.1%
viability, T/C [16]: 76.1%
viability, T/C [17]: 63.6%
viability, T/C [18]: 58.2%
viability, T/C [19]: 93.4%
viability, T/C [20]: 84.5%
viability, T/C [21]: 92.3%
viability, T/C [22]: 81.2%
viability, T/C [23]: 81.2%
viability, T/C [24]: 97.2%
viability, T/C [25]: 116%
viability, T/C [26]: 95.8%
viability, T/C [27]: 101%
viability, T/C [28]: 102%
viability, T/C [29]: 97.6%
viability, T/C [30]: 98%
viability, T/C [31]: 96.8%
viability, T/C [32]: 93.4%
viability, T/C [33]: 90.7%
viability, T/C [34]: 88.6%
viability, T/C [35]: 84.3%
viability, T/C [36]: 91.1%

IC50 (second compound 0.000949 µM): 45 nM
IC50 (second compound 0.003 µM): 45.9 nM
IC50 (second compound 0.00949 µM): 27.4 nM
IC50 (second compound 0.03 µM): 32.2 nM
IC50 (second compound 0.0949 µM): 30.8 nM
IC50 (second compound 0.3 µM): 37.6 nM
SMILES: CC1(C)CCC(Nc2ncc(C(F)(F)F)c(-c3c[nH]c4c(P(C)(C)=O)c(C#N)ccc34)n2)CN1 (stereo not drawn) + CCn1c(-c2cc(N3CCN(C)CC3)cnc2C(C)OC)c2c3cc(ccc31)-c1csc(n1)CC(NC(=O)C1CC1C)C(=O)N1CCCC(N1)C(=O)OCC(C)(C)C2
viability, T/C (second compound 0.000949 µM, first compound 0.000949 µM): 84.8%
viability, T/C (second compound 0.000949 µM, first compound 0.003 µM): 77.5%
viability, T/C (second compound 0.000949 µM, first compound 0.00949 µM): 78.1%
viability, T/C (second compound 0.000949 µM, first compound 0.03 µM): 57.4%
viability, T/C (second compound 0.000949 µM, first compound 0.0949 µM): 35.8%
viability, T/C (second compound 0.000949 µM, first compound 0.3 µM): 28%
viability, T/C (second compound 0.003 µM, first compound 0.000949 µM): 73.1%
viability, T/C (second compound 0.003 µM, first compound 0.003 µM): 66.7%
viability, T/C (second compound 0.003 µM, first compound 0.00949 µM): 65.3%
viability, T/C (second compound 0.003 µM, first compound 0.03 µM): 58%
viability, T/C (second compound 0.003 µM, first compound 0.0949 µM): 37.9%
viability, T/C (second compound 0.003 µM, first compound 0.3 µM): 29.1%
viability, T/C (second compound 0.00949 µM, first compound 0.000949 µM): 68.2%
viability, T/C (second compound 0.00949 µM, first compound 0.003 µM): 71.7%
viability, T/C (second compound 0.00949 µM, first compound 0.00949 µM): 61.5%
viability, T/C (second compound 0.00949 µM, first compound 0.03 µM): 50.7%
viability, T/C (second compound 0.00949 µM, first compound 0.0949 µM): 31.8%
viability, T/C (second compound 0.00949 µM, first compound 0.3 µM): 32.1%
viability, T/C (second compound 0.03 µM, first compound 0.000949 µM): 76%
viability, T/C (second compound 0.03 µM, first compound 0.003 µM): 70.6%
viability, T/C (second compound 0.03 µM, first compound 0.00949 µM): 72.4%
viability, T/C (second compound 0.03 µM, first compound 0.03 µM): 50.8%
viability, T/C (second compound 0.03 µM, first compound 0.0949 µM): 37%
viability, T/C (second compound 0.03 µM, first compound 0.3 µM): 36.2%
viability, T/C (second compound 0.0949 µM, first compound 0.000949 µM): 111%
viability, T/C (second compound 0.0949 µM, first compound 0.003 µM): 113%
viability, T/C (second compound 0.0949 µM, first compound 0.00949 µM): 88.6%
viability, T/C (second compound 0.0949 µM, first compound 0.03 µM): 50.5%
viability, T/C (second compound 0.0949 µM, first compound 0.0949 µM): 39.5%
viability, T/C (second compound 0.0949 µM, first compound 0.3 µM): 33.5%
viability, T/C (second compound 0.3 µM, first compound 0.000949 µM): 97.8%
viability, T/C (second compound 0.3 µM, first compound 0.003 µM): 98.7%
viability, T/C (second compound 0.3 µM, first compound 0.00949 µM): 72.6%
viability, T/C (second compound 0.3 µM, first compound 0.03 µM): 53.8%
viability, T/C (second compound 0.3 µM, first compound 0.0949 µM): 42.2%
viability, T/C (second compound 0.3 µM, first compound 0.3 µM): 37%

IC50 (second compound 0.000949 µM): > 1000 nM
IC50 (second compound 0.003 µM): > 1000 nM
IC50 (second compound 0.00949 µM): > 1000 nM
IC50 (second compound 0.03 µM): > 1000 nM
IC50 (second compound 0.0949 µM): > 1000 nM
IC50 (second compound 0.3 µM): > 1000 nM
SMILES: C=CC(=O)Nc1cc(Nc2nccc(-c3cn(C)c4ccccc34)n2)c(OC)cc1N(C)CCN(C)C + CCn1c(-c2cccnc2C(C)OC)c2c3cc(ccc31)N1CCOC(CC(NC(=O)C(C(C)C)N(C)C(=O)C3(F)CCN(C(=O)C#CC(C)(C)N(C)C)CC3)C(=O)N3CCCC(N3)C(=O)OCC(C)(C)C2)C1
viability, T/C [1]: 90.4%
viability, T/C [2]: 75.9%
viability, T/C [3]: 85.4%
viability, T/C [4]: 78.5%
viability, T/C [5]: 78%
viability, T/C [6]: 69.8%
viability, T/C [7]: 78.2%
viability, T/C [8]: 75.2%
viability, T/C [9]: 69.3%
viability, T/C [10]: 70.5%
viability, T/C [11]: 74.3%
viability, T/C [12]: 70.3%
viability, T/C [13]: 82.3%
viability, T/C [14]: 65%
viability, T/C [15]: 75.1%
viability, T/C [16]: 71%
viability, T/C [17]: 71.6%
viability, T/C [18]: 62.7%
viability, T/C [19]: 80.5%
viability, T/C [20]: 73.2%
viability, T/C [21]: 78.7%
viability, T/C [22]: 79%
viability, T/C [23]: 64.5%
viability, T/C [24]: 65%
viability, T/C [25]: 67.2%
viability, T/C [26]: 72.7%
viability, T/C [27]: 74%
viability, T/C [28]: 69.5%
viability, T/C [29]: 63.5%
viability, T/C [30]: 48.5%
viability, T/C [31]: 69.8%
viability, T/C [32]: 67%
viability, T/C [33]: 71.2%
viability, T/C [34]: 70.2%
viability, T/C [35]: 58.7%
viability, T/C [36]: 52.8%

IC50 (second compound 0.000949 µM): 300 nM
IC50 (second compound 0.003 µM): 239 nM
IC50 (second compound 0.00949 µM): 144 nM
IC50 (second compound 0.03 µM): 227 nM
IC50 (second compound 0.0949 µM): 129 nM
IC50 (second compound 0.3 µM): 58.7 nM
SMILES: O=C(c1ccc(F)c(F)c1Nc1ccc(I)cc1F)N1CC(O)([C@@H]2CCCCN2)C1 + CCn1c(-c2cccnc2C(C)OC)c2c3cc(ccc31)N1CCOC(CC(NC(=O)C(C(C)C)N(C)C(=O)C3(F)CCN(C(=O)C#CC(C)(C)N(C)C)CC3)C(=O)N3CCCC(N3)C(=O)OCC(C)(C)C2)C1
viability, T/C [1]: 81.2%
viability, T/C [2]: 77.5%
viability, T/C [3]: 80.8%
viability, T/C [4]: 66.5%
viability, T/C [5]: 49.9%
viability, T/C [6]: 35.4%
viability, T/C [7]: 72.6%
viability, T/C [8]: 69.8%
viability, T/C [9]: 67.5%
viability, T/C [10]: 66.8%
viability, T/C [11]: 44.6%
viability, T/C [12]: 28.6%
viability, T/C [13]: 71.1%
viability, T/C [14]: 62.6%
viability, T/C [15]: 70.7%
viability, T/C [16]: 55.4%
viability, T/C [17]: 37.7%
viability, T/C [18]: 32.7%
viability, T/C [19]: 66.1%
viability, T/C [20]: 72.8%
viability, T/C [21]: 73.1%
viability, T/C [22]: 59%
viability, T/C [23]: 46.3%
viability, T/C [24]: 28.9%
viability, T/C [25]: 76.7%
viability, T/C [26]: 64.5%
viability, T/C [27]: 69.5%
viability, T/C [28]: 45.9%
viability, T/C [29]: 44.3%
viability, T/C [30]: 33.9%
viability, T/C [31]: 70%
viability, T/C [32]: 65.6%
viability, T/C [33]: 52.1%
viability, T/C [34]: 45.6%
viability, T/C [35]: 40.1%
viability, T/C [36]: 31%
